Reference: ChEMBL document CHEMBL5550205, “Discovery of a NCOA4 Degrader for Labile Iron-Dependent Ferroptosis Inhibition” (J Med Chem, 2024)
Activity calls are given as the source filed them. No cut-off for these calls is given here.

Columns and labels:
[1] = molecular target: von Hippel-Lindau disease tumor suppressor/Nuclear receptor coactivator 4 (Homo sapiens, UniProt P40337+Q13772); assay: PROTAC activity at NCOA4/VHL in human HeLa cells assessed as induction of NCOA4 degradation at 50 nM measured for 24 hrs by Western blot analysis; format: cell-based
AML12 = assay: Protection against CCl4-induced ferroptosis in mouse AML12 cells assessed as cell viability; format: functional, cell-based

Chain of von Hippel-Lindau disease tumor suppressor/Nuclear receptor coactivator 4 (P40337 whole entry, looked up): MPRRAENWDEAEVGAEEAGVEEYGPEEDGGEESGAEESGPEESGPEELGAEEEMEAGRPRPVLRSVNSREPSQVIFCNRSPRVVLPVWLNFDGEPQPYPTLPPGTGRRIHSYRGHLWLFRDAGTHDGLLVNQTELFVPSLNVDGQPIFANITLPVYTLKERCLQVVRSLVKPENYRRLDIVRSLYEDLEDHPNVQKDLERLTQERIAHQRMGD
Chain of von Hippel-Lindau disease tumor suppressor/Nuclear receptor coactivator 4 (Q13772 whole entry, looked up): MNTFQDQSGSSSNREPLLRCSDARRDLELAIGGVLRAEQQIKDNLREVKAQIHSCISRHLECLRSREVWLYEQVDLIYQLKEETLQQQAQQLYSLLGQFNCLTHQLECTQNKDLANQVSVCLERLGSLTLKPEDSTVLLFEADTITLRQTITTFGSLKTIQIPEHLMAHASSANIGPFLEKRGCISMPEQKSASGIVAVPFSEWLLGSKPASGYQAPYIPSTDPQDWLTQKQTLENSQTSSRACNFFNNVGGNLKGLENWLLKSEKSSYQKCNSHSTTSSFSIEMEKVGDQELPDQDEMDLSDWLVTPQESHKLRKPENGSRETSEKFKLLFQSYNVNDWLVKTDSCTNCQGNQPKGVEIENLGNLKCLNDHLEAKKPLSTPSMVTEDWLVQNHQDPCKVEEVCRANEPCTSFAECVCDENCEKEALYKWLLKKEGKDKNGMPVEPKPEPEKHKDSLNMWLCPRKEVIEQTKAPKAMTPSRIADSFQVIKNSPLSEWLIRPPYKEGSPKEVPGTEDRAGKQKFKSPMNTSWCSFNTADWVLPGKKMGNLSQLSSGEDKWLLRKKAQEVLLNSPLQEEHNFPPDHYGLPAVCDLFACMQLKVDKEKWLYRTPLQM

| Activity [1] | SMILES | EC50 (AML12) [nM] |
| --- | --- | --- |
| Active | CN1CCN(c2ccc3nc(-c4cccc(N5CCc6cc(F)ccc6C5)c4)[nH]c3c2)CC1 | – |
| – | CCOC(=O)c1ccc(NC2CCCCC2)c(N)c1 | 104 |
